Assay results from patent publication EP1383793B1 (priority 2000, dated 2001).
pKd: −log10 of the molar value. Residues, ends and D or L forms follow the SMILES beside them. No end group written: not given here. *: point of attachment. Biotin = O=C1N[C@H]2[C@H](CS[C@H]2CCCCC(=O)*)N1

system: adipocytes; test: 3H-glucose uptake into adipocytes (fat cell assay, FFC); type: cell-based, Mouse; set-up: key to FFC: 0 is no effect; + is agonist; - is antagonist; settings: not given

Molecule	FFC
Ac-FYDWF-NH2 [Clone S184]	0
FHENFADWFVRQVSKK [Clone S220]	0
FHENFTDWAVRQVSKK [Clone S223]	0
FHENFYDAFVRQVSKK [Clone S222]	0
FHENFYDWFVRQVSK [Clone S158]	+
FQSLLEELVWGAPLFRYGTG [Clone S224]	0
GRVDWLQRNANFYDWFVA [Clone S250]	0
GRVDWLQRNANFYDWFVAE [Clone S249]	0
HDPFYSMMKSLLK [Clone S120]	0
HETFYSMIRSLAK [Clone S117]	0
HPPLSELKLFLIKK [Clone S124]	0
HPSTNQMLMKLFK [Clone S123]	0
HPTSKEIYAKLLK [Clone S122]	0
IQGWEPFYGWFDDWAQMFEE-NH2 [Clone S264]	0
NSFYEALRMLSSK [Clone S121]	0
SLNFYDALQLLAKK [Clone S119]	0
SSNFYQALMLLS [Clone S129]	0

molecular target: T1, human insulin receptor (HIR) (Homo sapiens, UniProt P06213); test: 125I-insulin competition binding assay on solubilised purified receptor; settings: read-out: HIR affinity
T1 construct: made in house
T1 sequence (P06213 28-758 limits assumed): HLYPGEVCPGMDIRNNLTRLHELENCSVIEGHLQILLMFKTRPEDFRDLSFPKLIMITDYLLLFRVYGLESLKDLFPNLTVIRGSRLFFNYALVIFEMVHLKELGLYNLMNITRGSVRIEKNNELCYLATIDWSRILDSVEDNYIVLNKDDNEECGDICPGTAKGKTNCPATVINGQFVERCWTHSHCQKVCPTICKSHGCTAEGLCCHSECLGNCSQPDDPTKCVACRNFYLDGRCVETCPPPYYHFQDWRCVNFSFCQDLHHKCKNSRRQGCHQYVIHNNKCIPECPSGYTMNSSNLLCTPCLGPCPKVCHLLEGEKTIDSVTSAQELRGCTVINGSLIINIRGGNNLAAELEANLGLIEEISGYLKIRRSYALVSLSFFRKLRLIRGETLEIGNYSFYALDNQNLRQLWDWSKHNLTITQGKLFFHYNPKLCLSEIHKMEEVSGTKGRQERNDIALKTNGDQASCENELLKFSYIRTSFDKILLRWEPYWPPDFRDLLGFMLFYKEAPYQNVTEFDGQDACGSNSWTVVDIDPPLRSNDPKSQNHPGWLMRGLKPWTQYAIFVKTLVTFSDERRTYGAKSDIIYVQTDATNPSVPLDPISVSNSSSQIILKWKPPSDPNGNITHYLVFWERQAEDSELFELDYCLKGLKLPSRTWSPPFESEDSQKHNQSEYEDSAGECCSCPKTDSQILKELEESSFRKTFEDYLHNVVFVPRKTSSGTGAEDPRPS
T1 sequence (P06213 763-1382 limits assumed): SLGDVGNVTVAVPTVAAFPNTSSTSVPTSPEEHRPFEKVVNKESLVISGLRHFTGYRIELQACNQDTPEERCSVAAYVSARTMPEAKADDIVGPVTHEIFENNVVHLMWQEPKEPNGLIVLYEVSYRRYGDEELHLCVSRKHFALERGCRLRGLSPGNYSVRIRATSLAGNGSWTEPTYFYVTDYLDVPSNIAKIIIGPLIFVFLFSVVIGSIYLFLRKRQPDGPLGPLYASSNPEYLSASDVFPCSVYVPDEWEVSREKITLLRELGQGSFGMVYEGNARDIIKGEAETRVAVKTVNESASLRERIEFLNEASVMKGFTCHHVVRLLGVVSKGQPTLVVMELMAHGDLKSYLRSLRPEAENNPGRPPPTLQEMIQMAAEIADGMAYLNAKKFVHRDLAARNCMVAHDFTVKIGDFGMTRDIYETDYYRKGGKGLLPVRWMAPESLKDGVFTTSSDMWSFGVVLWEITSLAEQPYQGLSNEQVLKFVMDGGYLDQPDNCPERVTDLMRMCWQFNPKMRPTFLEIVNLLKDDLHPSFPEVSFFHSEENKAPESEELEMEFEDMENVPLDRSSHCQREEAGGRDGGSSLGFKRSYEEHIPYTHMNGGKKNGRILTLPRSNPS

Molecule	pKd
CC(C)[C@H](NC(=O)[C@H](Cc1ccccc1)NC(=O)[C@H](Cc1c[nH]c2ccccc12)NC(=O)[C@H](CC(=O)O)NC(=O)[C@H](Cc1ccc(O)cc1)NC(=O)[C@H](Cc1ccccc1)NC(=O)[C@H](CC(N)=O)NC(=O)[C@H](CCC(=O)O)NC(=O)[C@H](Cc1c[nH]cn1)NC(=O)[C@@H](N)Cc1ccccc1)C(=O)N[C@@H](CCCNC(=N)N)C(=O)N[C@@H](CCC(N)=O)C(=O)N[C@H](C(=O)N[C@@H](CO)C(=O)N[C@@H](CCCCN)C(=O)N[C@@H](CCCCN)C(=O)N[C@@H](CNC(=O)CON=CCCCCC=NOCC(=O)NC[C@H](NC(=O)[C@H](CCCCN)NC(=O)[C@H](CCCCN)NC(=O)[C@H](CO)NC(=O)[C@@H](NC(=O)[C@H](CCC(N)=O)NC(=O)[C@H](CCCNC(=N)N)NC(=O)[C@@H](NC(=O)[C@H](Cc1ccccc1)NC(=O)[C@H](Cc1c[nH]c2ccccc12)NC(=O)[C@H](CC(=O)O)NC(=O)[C@H](Cc1ccc(O)cc1)NC(=O)[C@H](Cc1ccccc1)NC(=O)[C@H](CC(N)=O)NC(=O)[C@H](CCC(=O)O)NC(=O)[C@H](Cc1c[nH]cn1)NC(=O)[C@@H](N)Cc1ccccc1)C(C)C)C(C)C)C(N)=O)C(N)=O)C(C)C [Clone S169]	6.24
CC(C)[C@H](NC(=O)[C@H](Cc1ccccc1)NC(=O)[C@H](Cc1c[nH]c2ccccc12)NC(=O)[C@H](CC(=O)O)NC(=O)[C@H](Cc1ccc(O)cc1)NC(=O)[C@H](Cc1ccccc1)NC(=O)[C@H](CC(N)=O)NC(=O)[C@H](CCC(=O)O)NC(=O)[C@H](Cc1c[nH]cn1)NC(=O)[C@H](Cc1ccccc1)NC(=O)CNC(=O)[C@@H](N)CS)C(=O)N[C@@H](CCCNC(=N)N)C(=O)N[C@@H](CCC(N)=O)C(=O)N[C@H](C(=O)N[C@@H](CO)C(=O)N[C@@H](CCCCN)C(=O)N[C@@H](CCCCN)C(N)=O)C(C)C [Clone S171]	5.54
CC(C)[C@H](NC(=O)[C@H](Cc1ccccc1)NC(=O)[C@H](Cc1c[nH]c2ccccc12)NC(=O)[C@H](CC(=O)O)NC(=O)[C@H](Cc1ccc(O)cc1)NC(=O)[C@H](Cc1ccccc1)NC(=O)[C@H](CC(N)=O)NC(=O)[C@H](CCC(=O)O)NC(=O)[C@H](Cc1c[nH]cn1)NC(=O)[C@@H](N)Cc1ccccc1)C(=O)N[C@@H](CCCNC(=N)N)C(=O)N[C@@H](CCC(N)=O)C(=O)N[C@H](C(=O)N[C@@H](CO)C(=O)N[C@@H](CCCCN)C(=O)N[C@@H](CCCCN)C(=O)N[C@@H](CNC(=O)CON=CCCCCCCC=NOCC(=O)NC[C@H](NC(=O)[C@H](CCCCN)NC(=O)[C@H](CCCCN)NC(=O)[C@H](CO)NC(=O)[C@@H](NC(=O)[C@H](CCC(N)=O)NC(=O)[C@H](CCCNC(=N)N)NC(=O)[C@@H](NC(=O)[C@H](Cc1ccccc1)NC(=O)[C@H](Cc1c[nH]c2ccccc12)NC(=O)[C@H](CC(=O)O)NC(=O)[C@H](Cc1ccc(O)cc1)NC(=O)[C@H](Cc1ccccc1)NC(=O)[C@H](CC(N)=O)NC(=O)[C@H](CCC(=O)O)NC(=O)[C@H](Cc1c[nH]cn1)NC(=O)[C@@H](N)Cc1ccccc1)C(C)C)C(C)C)C(N)=O)C(N)=O)C(C)C [Clone S172]	5.32
AAAAFYDWFAAAAAKK-NH2 [Clone S168]	5.42
AFYDWF-NH2 [Clone S182]	< 4.70
AFYDWFA-NH2 [Clone S181]	< 4.70
AFYDWFAK-NH2 [Clone S180]	< 4.70
AFYEWFAKK-NH2 [Clone S214]	< 4.70
AFYGWFAKK-NH2 [Clone S215]	< 4.70
AFYKWFAKK-NH2 [Clone S216]	< 4.70
AHENFYDWFVRQVSKK-NH2 [Clone S113]	6.23
ALEEEWAWVQVRSIRSGLPL-NH2 [Clone S284]	< 4.70
APVSTEELRWGALLFGQWAG-NH2 [Clone S283]	< 4.70
Ac-FYDWF-NH2 [Clone S184]	< 4.70
DPFYQGLWEWLRESGEE-NH2 [Clone S289]	< 4.70
FAENFYDWFVRQVSKK-NH2 [Clone S112]	6.21

Molecule	pKd
FHENFYDAFVRQVSKK [Clone S222]	< 4.70
FHENFYDWFVAQVSKK-NH2 [Clone S108]	6.12
FHENFYDWFVRAVSKK-NH2 [Clone S107]	6.00
FHENFYDWFVRQASKK-NH2 [Clone S106]	6.38
FHENFYDWFVRQVAKK-NH2 [Clone S105]	6.51
FYDWF-NH2 [Clone S165]	< 4.70
FYDWFKK-NH2 [Clone S166]	< 4.70
GFREGQRWYWFVAQVT-NH2 [Clone S278]	< 4.70
HLSVGEELSWWVALLGQWAR-NH2 [Clone S282]	< 4.70
LDRQFYRYFQDLLVGFM-NH2 [Clone S260]	5.64
QAPSNFYDWFVREWDEE-NH2 [Clone S287]	5.23
QSFYDYIEELLGGEWKK-NH2 [Clone S288]	5.37
RWPNFYGYFESLLTHFS-NH2 [Clone S257]	4.85
TGHRLGLDEQFYWWFRDALSG-NH2 [Clone S265]	6.96
WGRSFYRYFETLLAQGI-NH2 [Clone S261]	< 4.70

same assay, conditions: read-out: Kd (µM) HIR

Molecule	Kd [µM]
CC(C)C[C@H](NC(=O)[C@H](C)NC(=O)[C@H](CO)NC(=O)[C@H](CCC(=O)O)NC(=O)[C@H](Cc1ccccc1)NC(=O)[C@H](Cc1c[nH]c2ccccc12)NC(=O)[C@H](CCC(=O)O)NC(=O)[C@H](Cc1ccc(O)cc1)NC(=O)[C@H](Cc1ccccc1)NC(=O)[C@@H](NC(=O)CNC(=O)CNC(=O)CNC(=O)[C@H](CCCNC(=N)N)NC(=O)[C@@H](N)CCCCN)[C@@H](C)O)C(=O)N[C@@H](CCCNC(=N)N)C(=O)N[C@@H](CCCCN)C(=O)N[C@@H](Cc1c[nH]cn1)C(=O)NCC(=O)N[C@@H](C)C(=O)NCC(=O)N[C@@H](CCCCN)C(=O)N[C@@H](CCCCNC(=O)CCCC[C@@H]1SC[C@@H]2NC(=O)N[C@@H]21)C(N)=O [Clone D110] (H-KRGGGTFYEWFESALRKHGAGKK(Biotin)-NH2)	0.84
